{"source": "patent US9169285B2", "about": "“Methods for purifying steviol glycosides and uses of the same” (The Coca-Cola Company, priority 2011, dated 2015)", "key": {"one experienced panelist": {"test_system": "one experienced panelist", "experiment": "Taste evaluation of Reb X against Reb A and Reb D, controlled multi-sip and swallow taste method", "format": "in vivo, human", "description": "The taste properties of a sample of Reb X were studied against Rebaudioside A (Reb A) and Rebaudioside D (Reb D) samples. Reb A was obtained from Cargill (lot #1040) and Reb-D was obtained from PureCircle (lot #Nov. 3, 2008).\nThe samples were prepared at 500 ppm for sweetness evaluation by adding moisture compensated mass into a 100 mL sample of carbon-treated water and citric buffer solutions.\n(§1) Citric buffer was prepared by mixing 1.171 g/L citric acid, 0.275 g/L sodium citrate and 0.185 g/L sodium benzoate with carbon-treated water, with a final pH of 3.22. The mixtures were moderately stirred at room temperature. The Reb X sample was then evaluated against the two control Reb A and Reb D samples in water and citric buffer at room temperature (RT) and at 4° C. in an ice bath by one experienced panelist for any tasting quality determinations using the controlled, multi-sip and swallow taste method shown below:\n1. Take first sip (˜1.8 mL) of control and swallow. Wait for 15-25 sec, then take second sip of control and wait for 15-25 sec.\n2. Take first sip of the experimental sample, wait for 15-25 sec, then take second sip. Compare to second sip of control.\n3. Repeat steps #1 and #2 for the third and fourth sips of the control and experimental samples to confirm the initial finding."}, "panel of trained tasters": {"test_system": "panel of trained tasters", "experiment": "Reb X sweetness vs. concentration, matched to sucrose reference solutions", "format": "in vivo, human", "conditions": "Sweetness Equivalent (SE) 2.5%; Reb X 98% purity; water, room temperature", "description": "2.5%, 5.0%, 7.5%, and 10.0% sucrose solutions were prepared in neutral (7.0 pH) and acidified water (3.2 pH) as reference samples. Solutions containing Reb X (98% purity) were prepared to match the sweetness of each sucrose reference in neutral and acidified water. Samples were tasted and verified by a panel of trained tasters in water at room temperature."}, "[1]": {"test_system": "semi-trained panel members", "experiment": "Sensory comparison of Reb X and Reb A, iso-sweet samples of 8% sucrose equivalent sweetness", "format": "in vivo, human", "description": "To compare the sensory attributes between Reb X and Reb A, iso-sweet samples having 8% sucrose equivalent sweetness were made with filtered water as shown in Table 8. An 8% sugar solution in water at room temperature was used as a control. An 8% sugar solution in the acidified solution was used as the control. The samples prepared with filtered water were evaluated by 34 semi-trained panel members at room temperature. The samples prepared with acidified water were evaluated by 23 semi-trained panel members at room temperature. Samples were given to the panel members sequentially and coded with triple digit numbers. The order of sample presentation was randomized to avoid order of presentation bias. Water and unsalted crackers were provided in order to cleanse the palate. The panel members were asked to rate different attributes including sweetness onset, total sweetness, rounded sweetness, bitterness, acidity, leafy note, licorice, astringency, mouthfeel, mouth coating, sweet lingering, and bitter lingering. Samples were rated on a scale of zero (0) to ten (10), with zero indicating immediate onset, no intensity, watery/low viscosity, or very sharp peak, and ten indicating very delayed onset, high intensity, thick/high viscosity, or very round peak. One-way single factor ANOVA was used to analyze sensory results, where α=0.05."}, "panelists": {"test_system": "panelists", "experiment": "Sensory properties of steviol glycosides in acidified water (pH 3.0) at 500 mg/L, 20 panelists", "format": "in vivo, human", "conditions": "acidified water pH 3.0, 20 panelists", "description": "The sensory properties of Reb X were evaluated in acidified water (pH 3.0 by phosphoric acid) at 500 mg/L concentration by 20 panelists."}, "[2]": {"experiment": "Solubility studies of Reb X in carbon-treated water and citrate buffer", "format": "physicochemical", "description": "as §1\nThe samples used to evaluate the taste properties in Example 2 were also used for solubility studies."}, "[3]": {"experiment": "Taste comparison of Reb X and Reb A in beverage formulations", "format": "in vivo"}, "[4]": {"experiment": "Solubility of the Reb X stock solution in citric buffer", "format": "physicochemical", "conditions": "Reb X 0.06% (w/v) in citric buffer, up to 52° C., ca. 15-20 minutes", "description": "(§2) The isosweetness levels of Reb X in a citric buffer system at room temperature and 4° C. were evaluated. A 600 ppm stock solution of Reb X was prepared by adding a mass of 0.15 g into a 250 mL sample of citric buffer (CB) solution. The mixture was moderately stirred at warmer temperature (up to ca. 52° C.) on a heated stirrer for about 15-20 minutes and then cooled. The citric buffer was prepared by adding 1.6 g citric acid, 0.6 g potassium citrate and 0.253 g sodium benzoate in 1 L of carbon-treated water. The pH of the mixture was 3.1. Seven diluted Reb X solutions at […], 25, 50, 100, 200, 300, 400 and 500 ppm were prepared by adding a 2.08, 4.17, 8.33, 16.67, 25.00, 33.33 and 41.67 mL Reb X stock solution, respectively, into each 50 mL solution of CB. The controls of 0.75%, 2%, 4%, 6%, 8%, 10% and 15% sucrose equivalence (SE) were also prepared by adding sugar (w/v) into the CB. The mixtures were moderately stirred and then ready for the isosweetness determination test. The Reb X samples were then evaluated against the control sugar samples in citric buffer at room temperature (RT) and 4° C. (in an ice bath) by one experienced taster for an isosweetness determination using the controlled, multi-sip and swallow taste method."}, "one experienced taster": {"test_system": "one experienced taster", "experiment": "Isosweetness determination of Reb X in citric buffer against sucrose controls", "format": "in vivo, human", "description": "as §2"}}, "note": "“Also recorded” adds a separate entry of the source."}
{"smiles": "C=C1C[C@@]23CCC4[C@](C)(C(=O)OC5OC(CO)C(O)C(OC6OC(CO)C(O)C(O)C6O)C5OC5OC(CO)C(O)C(O)C5O)CCC[C@@]4(C)[C@@H]2CCC1(OC1OC(CO)C(O)C(OC2OC(CO)C(O)C(O)C2O)C1OC1OC(CO)C(O)C(O)C1O)C3", "note": "(stereo partly drawn) [Reb X, 13-[(2-O-β-D-glucopyranosyl-3-O-β-D-glucopyranosyl-β-D-glucopyranosyl)oxy]ent kaur-16-en-19-oic acid-[(2-O-β-D-glucopyranosyl-3-O-β-D-glucopyranosyl-β-D-glucopyranosyl)ester]]", "values": [{"measurement": "Taste Properties", "setting": "one experienced panelist; 500 ppm in citric buffer (pH 3.22), room temperature", "value": "temporal profile and quality similar to sucrose; also recorded: Clean sweet taste. Broad and full sweetness profile; also recorded: Moderate sweetness linger aftertaste similar to aspartame"}, {"measurement": "Astringency, sweetness depth and bitterness notes", "setting": "one experienced panelist; 500 ppm, citrate buffer system, compared with Reb A", "value": "did not have the astringency or sweetness intense (depth) and bitterness notes compared to that of the Reb A"}, {"measurement": "Taste quality compared with Reb A and Reb D", "setting": "one experienced panelist; 500 ppm, citric buffer", "value": "much better than Reb A or Reb D"}, {"measurement": "Tasting quality, temporal profile and sweetness linger", "setting": "one experienced panelist; 500 ppm, citric buffer, compared with Reb A", "value": "did not display a pure sugar-like tasting quality but rather contained a fatty-like or broader sweet temporal profile and less sweetness linger than that of Reb A"}, {"measurement": "Reb X Concentration matching the sucrose reference", "setting": "panel of trained tasters", "value": 48, "unit": "ppm"}, {"measurement": "Sweetness onset, non-sweet taste and bitterness lingering compared with Reb A", "setting": "[1]; acidified water (250 ppm citric acid, pH 3.2), 23 panel members, FIG. 12", "value": "faster sweetness onset, reduced non-sweet taste (bitterness, sour, astringency) and bitterness lingering"}, {"measurement": "Sweetness compared with Reb A", "setting": "[1]; acidified water (250 ppm citric acid, pH 3.2), Reb X 0.0423% vs Reb A 0.0510%, 23 panel members, FIG. 12", "value": "perception of higher sweetness of Reb X over Reb A is significant"}, {"measurement": "Bitterness, astringency and bitter lingering compared with Reb A", "setting": "[1]; filtered water, Reb X 0.0423% vs Reb A 0.0510%, 34 panel members, scale 0-10, FIG. 11", "value": "reduced perception of bitterness, astringency and bitter lingering compared to Reb A"}, {"measurement": "Quality of sweet taste (comment)", "setting": "panelists; 500 ppm (sucrose 10,000 ppm)", "value": "Clean"}, {"measurement": "Taste profile compared with known steviol glycosides", "setting": "panelists; 500 ppm", "value": "superior taste profile to already known steviol glycosides"}, {"measurement": "Solubility, initial solubility test", "setting": "[2]; 500 ppm in citrate buffer, compared with Reb D and Reb A", "value": "similar, limited but significantly greater solubility than that of Reb D and significantly less solubility than Reb A"}, {"measurement": "Estimated time to solubilize", "setting": "[2]; Reb X 0.01% in carbon-treated water", "value": 15, "unit": "min"}, {"measurement": "Estimated time to solubilize", "setting": "[2]; Reb X 0.01% in citrate buffer", "value": 25, "unit": "min"}, {"measurement": "Estimated time to solubilize", "setting": "[2]; Reb X 0.02% in carbon-treated water", "value": 25, "unit": "min"}, {"measurement": "Estimated time to solubilize", "setting": "[2]; Reb X 0.02% in citrate buffer", "value": 25, "unit": "min"}, {"measurement": "Estimated time to solubilize", "setting": "[2]; Reb X 0.04% in carbon-treated water", "value": 33, "unit": "min"}, {"measurement": "Estimated time to solubilize", "setting": "[2]; Reb X 0.04% in citrate buffer", "value": 35, "unit": "min"}, {"measurement": "Estimated time to solubilize", "setting": "[2]; Reb X 0.05% in carbon-treated water", "value": 39, "unit": "min"}, {"measurement": "Estimated time to solubilize", "setting": "[2]; Reb X 0.05% in citrate buffer", "value": 42, "unit": "min"}, {"measurement": "Estimated time to solubilize", "setting": "[2]; Reb X 0.075% in carbon-treated water", "value": 55, "unit": "min"}, {"measurement": "Estimated time to solubilize", "setting": "[2]; Reb X 0.075% in citrate buffer", "value": 55, "unit": "min"}, {"measurement": "Estimated time to solubilize", "setting": "[2]; Reb X 0.10% in carbon-treated water", "value": 106, "unit": "min"}, {"measurement": "Estimated time to solubilize", "setting": "[2]; Reb X 0.10% in citrate buffer", "value": 106, "unit": "min"}, {"measurement": "Estimated time to solubilize", "setting": "[2]; Reb X 0.15% in carbon-treated water", "value": "Insoluble after 20 hours"}, {"measurement": "Estimated time to solubilize", "setting": "[2]; Reb X 0.15% in citrate buffer", "value": "Insoluble after 20 hours"}, {"measurement": "Taste properties compared with Reb A drink", "setting": "[3]; flavored zero calorie black tea drink, 250 ppm", "value": "much cleaner in finish with less sweetness linger and a more rounded overall sweetness profile"}, {"measurement": "Taste properties compared with Reb A drink", "setting": "[3]; zero calorie enhanced water drink, 200 ppm", "value": "cleaner in finish and had reduced sweetness linger and a more rounded overall sweetness taste quality"}, {"measurement": "Reb X level closest in sweetness level to a 11.5 Brix high fructose corn syrup sweetened orange flavored sparkling beverage", "setting": "[3]; zero calorie orange-flavored sparkling beverage base", "value": 500, "unit": "ppm"}, {"measurement": "Taste compared with Reb A-containing formulations", "setting": "[3]; zero calorie orange-flavored sparkling beverage, Reb X 400 to 750 ppm in 50 ppm increments", "value": "tasted significantly better than comparable Reb A-containing formulations"}, {"measurement": "Solubility and appearance", "setting": "[4]", "value": "very soluble and clear (colorless)"}, {"measurement": "Off-flavors", "setting": "one experienced taster; Reb X 12.5-600 ppm in citric buffer at 4° C.", "value": "No off-flavors at any Reb X concentrations in CB at 4 °C were detected, except at least ca. 300 ppm which noticeably had a longer sweetness lingering"}, {"measurement": "Sweetness intensity difference between RT and 4° C.", "setting": "one experienced taster; Reb X concentration range, direct comparison with control sucrose at similar temperatures", "value": "no significant sweetness intensity difference between RT and 4 °C"}, {"measurement": "Sweetness tasting quality", "setting": "one experienced taster; all Reb X concentrations (12.5-600 ppm), citric buffer", "value": "pleasant sweetness tasting quality with a slight delay of sweetness onset and no bitterness"}]}
